Data on 19 molecules can be found in PubChem BioAssay (NCI).

Among the test systems are 786-0 renal; ACHN renal; COLO 205 colon; HCT-116 colon; HOP-92 NSCLC; HT29 colon; M14 melanoma; MOLT-4 leukemia; OVCAR-3 ovarian; SK-MEL-2 melanoma; HCC-2998 colon.
Common to all, as to experiment: NCI anticancer screen, dose series, 48 h

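The compound was tested at five concentrations on cells cultured in 96-well plates, with a 48-hour exposure period. GI50 is the concentration that inhibits growth by half. TGI denotes the concentration required for complete inhibition of growth.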

For the molecule `O=C1c2ccccc2C(=O)N1Cc1ccccc1-c1c2nc(c(-c3ccccc3CN3C(=O)c4ccccc4C3=O)c3ccc([nH]3)c(-c3ccccc3CN3C(=O)c4ccccc4C3=O)c3nc(c(-c4ccccc4CN4C(=O)c5ccccc5C4=O)c4ccc1[nH]4)C=C3)C=C2`, the TGI in the test on 786-0 renal, in the test on ACHN renal, in the test with COLO 205 colon, with HCT-116 colon, with HOP-92 NSCLC and in the test with HT29 colon was over 100 µM in each case. The TGI in the test on M14 melanoma, in the test on MOLT-4 leukemia, in the test with OVCAR-3 ovarian and in the test with SK-MEL-2 melanoma was over 100 µM each time.
In the case of `NC1=NS(=O)(=O)Nc2nc(-c3ccc(Cl)cc3)c(-c3ccc(Cl)cc3)nc21`, the TGI in the test on 786-0 renal, in the test with ACHN renal, in the test on COLO 205 colon, in the test with HCC-2998 colon, in the test on HCT-116 colon and with HOP-92 NSCLC was over 100 µM throughout. Further, the TGI in the test on HT29 colon, in the test on M14 melanoma, in the test on MOLT-4 leukemia and in the test with OVCAR-3 ovarian was over 100 µM in each case.
With `CC1=COC(C)(C=C(C#N)C#N)CC1` (stereo not drawn), the TGI in the test on 786-0 renal, with ACHN renal, in the test on COLO 205 colon, with HCC-2998 colon, in the test on HCT-116 colon and in the test with HT29 colon was over 100 µM throughout. Moreover, the TGI with M14 melanoma and in the test with MOLT-4 leukemia was over 100 µM in each case.
Turning to `CCOC(=O)/C1=C(\C)N(c2ccc(C)cc2)C(=O)c2ccccc2C(=O)c2c(OC(C)=O)ccc(OC(C)=O)c21`, the TGI is over 100 µM in the test on 786-0 renal; 77.2 µM with ACHN renal; 26.3 µM in the test on COLO 205 colon; 35.9 µM in the test on HCT-116 colon; over 100 µM with HOP-92 NSCLC; 35.7 µM in the test on HT29 colon. For the same molecule, the TGI in the test on M14 melanoma was 54.3 µM; in the test with MOLT-4 leukemia, 21.4 µM; with OVCAR-3 ovarian, 39.3 µM; in the test with SK-MEL-2 melanoma, 82.7 µM.
Turning to `NC1=NS(=O)(=O)Nc2nc(-c3ccc([N+](=O)[O-])cc3)[nH]c21`, the TGI in the test on 786-0 renal, in the test on ACHN renal, in the test with COLO 205 colon, in the test on HCC-2998 colon, with HCT-116 colon and with HOP-92 NSCLC was over 100 µM throughout. Moreover, the TGI in the test on HT29 colon, with M14 melanoma, in the test with MOLT-4 leukemia, in the test with OVCAR-3 ovarian and in the test with SK-MEL-2 melanoma was over 100 µM in each case.
Regarding `Cc1cc(C)[n+](CCOc2ccc(/C(=C(/Cl)c3ccccc3)c3ccccc3)cc2)c(C)c1`, the TGI in the test with 786-0 renal is 8.35 µM; in the test on ACHN renal, 31.4 µM; in the test on COLO 205 colon, 0.961 µM; in the test with HCC-2998 colon, 2.46 µM; in the test with HCT-116 colon it was 7.98 µM; with HOP-92 NSCLC, 2.7 µM. Besides, the TGI in the test with HT29 colon is 3.48 µM; with M14 melanoma it was 6.88 µM; in the test on MOLT-4 leukemia, 11.3 µM; in the test with OVCAR-3 ovarian, 4.07 µM; in the test on SK-MEL-2 melanoma, 2.18 µM.
For the molecule `NC1=NS(=O)(=O)Nc2nc(-c3ccc([N+](=O)[O-])o3)[nH]c21`, the TGI in the test on 786-0 renal came out at 29 µM; in the test on ACHN renal, 30.5 µM; in the test on HCC-2998 colon it was 32.2 µM; with HCT-116 colon it was 17.7 µM; in the test on HOP-92 NSCLC it was 27.1 µM; with HT29 colon it was 42.4 µM. Further, the TGI turned out to be 28.4 µM with M14 melanoma, 41 µM in the test on MOLT-4 leukemia, 52.8 µM with OVCAR-3 ovarian and 30.7 µM in the test on SK-MEL-2 melanoma.
Take `CC(=O)OC1CC2C(C)(C)OC(=O)CC(OC(C)=O)[C@]2(C)C2CCC3(C)C(=CCC3[C@H]3COC(=O)C3)[C@]12C` (stereo partly drawn): the TGI with 786-0 renal, in the test with ACHN renal, with COLO 205 colon, in the test on HCC-2998 colon, in the test on HCT-116 colon and in the test on HOP-92 NSCLC was over 100 µM throughout. For the same molecule, the TGI with HT29 colon was over 100 µM; in the test on M14 melanoma it was over 100 µM; in the test on MOLT-4 leukemia, 89.5 µM; in the test with OVCAR-3 ovarian, over 100 µM; with SK-MEL-2 melanoma, over 100 µM.
For the molecule `COc1cc(Nc2c3ccccc3nc3ccccc23)ccc1NS(C)(=O)=O`, the TGI in the test on ACHN renal was 14.8 µM; with COLO 205 colon, 16.1 µM; in the test with HCC-2998 colon it was 28.8 µM; in the test with HCT-116 colon, over 100 µM; with M14 melanoma, 13.5 µM; in the test with MOLT-4 leukemia, over 100 µM. The TGI with SK-MEL-2 melanoma is 23.6 µM.
As for `CC(C)C(=O)/C=C/c1ccc(Br)cc1`, the TGI in the test on 786-0 renal was 23.2 µM; with ACHN renal, 25.4 µM; in the test with COLO 205 colon, 56.1 µM; with HCC-2998 colon it was 30.9 µM; in the test with HCT-116 colon, 17.4 µM; in the test on HOP-92 NSCLC, 30.9 µM. Further, the TGI with HT29 colon turned out to be 31.6 µM; with M14 melanoma, 32.4 µM; with MOLT-4 leukemia it was 95.9 µM; in the test with OVCAR-3 ovarian, 27.3 µM; in the test on SK-MEL-2 melanoma it was 29.7 µM.
Take `Cc1[nH]c(=O)[nH]c(=O)c1/C=C/C(=O)O`: the TGI in the test on COLO 205 colon was over 1000 µM; in the test on HCC-2998 colon it was over 1000 µM; with HCT-116 colon it was over 1000 µM; in the test with HOP-92 NSCLC, 62.6 µM; in the test with HT29 colon it was over 1000 µM; in the test with MOLT-4 leukemia it was over 1000 µM. In addition, the TGI with OVCAR-3 ovarian and with SK-MEL-2 melanoma was over 1000 µM throughout.
Take `Nc1ccc2[nH]c3c(-c4ccccc4)nccc3c2c1`: the TGI in the test with COLO 205 colon is over 100 µM; in the test on HCC-2998 colon, 96.8 µM; in the test with HCT-116 colon, over 100 µM; in the test on HOP-92 NSCLC, over 100 µM; in the test with HT29 colon it was over 100 µM; with MOLT-4 leukemia, 22.8 µM. Besides, the TGI in the test on OVCAR-3 ovarian and with SK-MEL-2 melanoma was over 100 µM each time.
With `CCCSc1ccc2[nH]c(/N=C/c3ccco3)cc2c1`, the TGI in the test with 786-0 renal is over 100 µM; with ACHN renal, over 100 µM; in the test on COLO 205 colon, 49.7 µM; with HCT-116 colon it was over 100 µM; with HOP-92 NSCLC, over 100 µM; in the test on HT29 colon, over 100 µM. Moreover, the TGI was over 100 µM in the test with M14 melanoma, over 100 µM with OVCAR-3 ovarian and 59 µM in the test on SK-MEL-2 melanoma.
As for `O=C1c2ccccc2CCCCCCCCCCC12OCCCO2`, the TGI with 786-0 renal is over 100 µM; in the test with ACHN renal, over 100 µM; in the test with COLO 205 colon, 38.1 µM; in the test on HCC-2998 colon it was 68.2 µM; in the test with HCT-116 colon, 38.3 µM; in the test with HT29 colon, 42.9 µM. In addition, the TGI in the test on M14 melanoma is over 100 µM; with MOLT-4 leukemia it was 43.8 µM; in the test on OVCAR-3 ovarian it was over 100 µM; with SK-MEL-2 melanoma it was 68.3 µM.
In the case of `CC(=O)Nc1cc2c(s1)CCC1CC(=O)NN=C21` (stereo not drawn), the TGI in the test on 786-0 renal, in the test on ACHN renal, with COLO 205 colon, with HCT-116 colon, in the test on HT29 colon and in the test on M14 melanoma was over 100 µM in each case. For the same molecule, the TGI in the test with MOLT-4 leukemia, in the test with OVCAR-3 ovarian and in the test on SK-MEL-2 melanoma was over 100 µM throughout.
In the case of `Nn1c(CCCCCCCCc2nnc(COc3ccc(Cl)cc3)n2N)nnc1COc1ccc(Cl)cc1`, the TGI with 786-0 renal, in the test with ACHN renal, in the test on COLO 205 colon, in the test on HCC-2998 colon, in the test on HCT-116 colon and in the test on HOP-92 NSCLC was over 100 µM each time. Further, the TGI in the test with HT29 colon, in the test on M14 melanoma, with MOLT-4 leukemia and with SK-MEL-2 melanoma was over 100 µM in each case.
For `C[C@]12CCc3nc(Nc4ccccc4)sc3C1=CC[C@@H]1[C@@H]2CC[C@]2(C)/C(=N/NC(N)=S)CC[C@@H]12`, the GI50 was 3.67 µM in the test on ACHN renal; 4.49 µM with COLO 205 colon; 32.6 µM in the test on HCC-2998 colon; 5.59 µM in the test on HOP-92 NSCLC; 2.23 µM in the test with HT29 colon; 3.71 µM in the test with M14 melanoma. For the same molecule, the results for the GI50 in the test on MOLT-4 leukemia and with SK-MEL-2 melanoma were 1.88 µM and 5.89 µM, respectively. In addition, the TGI with ACHN renal, in the test with COLO 205 colon, with HCC-2998 colon, in the test with HOP-92 NSCLC, in the test on HT29 colon and with M14 melanoma was over 100 µM throughout. The TGI in the test with MOLT-4 leukemia and in the test on SK-MEL-2 melanoma was over 100 µM in each case.
Take `O=C(NC(Cc1ccc(I)cc1)C(=O)O)c1ccc(Br)cc1` (stereo not drawn): the TGI with COLO 205 colon, with HCC-2998 colon, in the test with HCT-116 colon, with HOP-92 NSCLC, in the test on HT29 colon and in the test on MOLT-4 leukemia was over 100 µM in each case. Further, the TGI with OVCAR-3 ovarian and in the test with SK-MEL-2 melanoma was over 100 µM throughout.
Consider `COc1cc(C2SCC(=O)N2c2ccc(-c3ccc(-n4c(-c5ccccc5)nc5ccccc5c4=O)cc3)cc2)cc(OC)c1OC` (stereo not drawn), for which the TGI in the test with 786-0 renal is 47.6 µM; with ACHN renal, over 100 µM; with COLO 205 colon it was over 100 µM; in the test on HCC-2998 colon, over 100 µM; in the test with HCT-116 colon, 35.1 µM; in the test with HOP-92 NSCLC it was over 100 µM. The TGI in the test with HT29 colon is over 100 µM; with M14 melanoma, over 100 µM; in the test with MOLT-4 leukemia it was over 100 µM; in the test with OVCAR-3 ovarian, 80.9 µM; in the test on SK-MEL-2 melanoma, 56.5 µM.
